Several values for one entry are separate records, joined by “and”; a condition that tells them apart may be missing. Equal entries are not always repeated.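 Grown in 96-well plates, cells were treated for 48 hours with each compound at five concentrations. Insufficient inhibition: endpoint recorded as highest concentration tested. GI50 is the concentration that inhibits growth by half. TGI: total growth inhibition.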
How the values were obtained:
Assay in all cases: NCI tumour cell line growth inhibition, 48 h
[1] = test system: A498 renal
[2] = test system: CCRF-CEM leukemia
[3] = test system: DMS 114 small cell lung
[4] = test system: EKVX NSCLC
[5] = test system: HCC-2998 colon
[6] = test system: HL-60(TB) leukemia
[7] = test system: HOP-18 NSCLC
[8] = test system: HOP-62 NSCLC
[9] = test system: HOP-92 NSCLC
[10] = test system: IGROV1 ovarian
[11] = test system: K-562 leukemia
[12] = test system: KM12 colon
[13] = test system: KM20L2 colon
[14] = test system: LOX IMVI melanoma
[15] = test system: LXFL 529 NSCLC
[16] = test system: M14 melanoma
[17] = test system: M19-MEL melanoma
[18] = test system: MALME-3M melanoma
[19] = test system: MOLT-4 leukemia
[20] = test system: NCI-H226 lung
[21] = test system: NCI-H23 lung
[22] = test system: NCI-H522 lung
[23] = test system: OVCAR-4 ovarian
[24] = test system: OVCAR-5 ovarian
[25] = test system: OVCAR-8 ovarian
[26] = test system: RPMI-8226 leukemia
[27] = test system: RXF 393 renal
[28] = test system: RXF-631 renal
[29] = test system: SF-295 CNS
[30] = test system: SF-539 CNS
[31] = test system: SK-MEL-2 melanoma
[32] = test system: SK-MEL-28 melanoma
[33] = test system: SK-MEL-5 melanoma
[34] = test system: SK-OV-3 ovarian
[35] = test system: SN12C renal
[36] = test system: SNB-19 CNS
[37] = test system: SNB-75 CNS
[38] = test system: SR leukemia
[39] = test system: SW-620 colon
[40] = test system: TK-10 renal
[41] = test system: UACC-257 melanoma
[42] = test system: UACC-62 melanoma
[43] = test system: UO-31 renal
[44] = test system: XF 498 CNS
[45] = test system: 786-0 renal
[46] = test system: A549 NSCLC
[47] = test system: ACHN renal
[48] = test system: COLO 205 colon
[49] = test system: DLD-1 colon
[50] = test system: DMS 273 small cell lung
[51] = test system: HCT-116 colon
[52] = test system: HT29 colon
[53] = test system: NCI-H460 lung
[54] = test system: OVCAR-3 ovarian
[55] = test system: SNB-78 CNS
[56] = test system: U251 CNS
[57] = test system: CAKI-1 renal
[58] = test system: HCT-15 colon
[59] = test system: SF-268 CNS

`COc1cccc2c1C(=O)c1c(O)c3c(c(O)c1C2=O)C[C@@](O)(C(=O)CO)CC3OC1CC(NCCCC(OC(C)=O)OC(C)=O)C(O)C(C)O1` (some centres undefined) gave a TGI [1] of 6.09 nM, a GI50 [2] of 0.104 nM and a TGI [2] of over 1000 nM. For the same molecule, the GI50 [3] was under 0.1 nM, the TGI [3] was 0.341 nM and the GI50 [4] was 0.305 nM. The TGI [4] was 6.18 nM and 1.19 nM, the GI50 [5] was 0.324 nM and the TGI [5] was 5.93 nM and 1.91 nM. The TGI [6] was 5.8 nM, the GI50 [7] was 5.07 nM and the TGI [8] was 4.61 nM. The GI50 [9] was 0.24 nM, the TGI [9] was 6.5 nM and 0.862 nM and the GI50 [10] was 0.754 nM. The TGI [10] was over 1000 nM, the GI50 [11] was under 0.1 nM and the TGI [11] was 0.729 nM. It also gave a GI50 [12] of under 0.1 nM, a TGI [12] of 0.187 nM and a GI50 [13] of under 0.1 nM. It also gave a TGI [13] of 167 nM, a TGI [14] of 0.743 nM and a TGI [15] of 8.72 nM. It also gave a GI50 [16] of under 0.1 nM, a GI50 [17] of under 0.1 nM and a TGI [17] of 0.323 nM. The TGI [18] was 4.52 nM, the GI50 [19] was 0.123 nM and the TGI [20] was 5.79 nM. For the same molecule, the GI50 [21] was under 0.1 nM, the GI50 [22] was under 0.1 nM and the TGI [22] was 3.46 nM and 0.412 nM. The GI50 [23] was under 0.1 nM, the GI50 [24] was 0.347 nM and the TGI [24] was 701 nM. For the same molecule, the GI50 [25] was under 0.1 nM, the TGI [25] was 11.9 nM and the GI50 [26] was under 0.1 nM. For the same molecule, the TGI [26] was 0.403 nM, the GI50 [27] was 0.198 nM and the TGI [27] was 3.28 nM and 0.813 nM. For the same molecule, the TGI [28] was 0.897 nM, the GI50 [29] was under 0.1 nM and the TGI [29] was 0.645 nM. For the same molecule, the GI50 [30] was under 0.1 nM, the TGI [30] was 4.45 nM and 1.15 nM and the GI50 [31] was under 0.1 nM. For the same molecule, the TGI [32] was 7.87 nM, the GI50 [33] was under 0.1 nM and the TGI [33] was 0.28 nM. For the same molecule, the GI50 [34] was 0.298 nM, the TGI [34] was over 1000 nM and the GI50 [35] was under 0.1 nM. The TGI [35] was over 1000 nM, the GI50 [36] was 0.202 nM and the GI50 [37] was under 0.1 nM. The TGI [37] was 4.03 nM and 0.406 nM, the TGI [38] was 0.288 nM and the GI50 [39] was under 0.1 nM. For the same molecule, the TGI [39] was over 1000 nM, the GI50 [40] was 363 nM and the TGI [40] was over 1000 nM. The GI50 [41] was 0.314 nM, the TGI [41] was 7.39 nM and 1.44 nM and the GI50 [42] was under 0.1 nM. It also gave a TGI [43] of 4.27 nM and a GI50 [44] of 0.1 nM.

`CSCCC(C(=O)O)N(CC1(O)OCC(O)C(O)C1O)N=O` (centres undefined) gave a TGI [45] of over 100000 nM, a TGI [1] of over 100000 nM and a TGI [46] of over 100000 nM. For the same molecule, the TGI [47] was over 100000 nM, the TGI [2] was over 100000 nM and the TGI [48] was over 100000 nM. For the same molecule, the TGI [49] was over 100000 nM, the TGI [3] was over 100000 nM and the TGI [50] was over 100000 nM. The TGI [4] was over 100000 nM, the TGI [5] was over 100000 nM and the TGI [51] was over 100000 nM. The TGI [6] was over 100000 nM, the TGI [8] was over 100000 nM and the TGI [9] was over 100000 nM. The TGI [52] was over 100000 nM, the TGI [10] was over 100000 nM and the TGI [11] was over 100000 nM. For the same molecule, the TGI [12] was over 100000 nM, the TGI [13] was over 100000 nM and the TGI [14] was over 100000 nM. For the same molecule, the TGI [15] was over 100000 nM, the TGI [16] was over 100000 nM and the TGI [17] was over 100000 nM. The TGI [18] was over 100000 nM, the TGI [19] was over 100000 nM and the TGI [21] was over 100000 nM. It also gave a TGI [53] of over 100000 nM, a TGI [22] of over 100000 nM and a TGI [54] of over 100000 nM. It also gave a TGI [24] of over 100000 nM, a TGI [25] of over 100000 nM and a TGI [26] of over 100000 nM. It also gave a TGI [27] of over 100000 nM, a TGI [28] of over 100000 nM and a TGI [30] of over 100000 nM. It also gave a TGI [31] of over 100000 nM, a TGI [32] of over 100000 nM and a TGI [33] of over 100000 nM. The TGI [34] was over 100000 nM, the TGI [37] was over 100000 nM and the TGI [55] was over 100000 nM. The TGI [39] was over 100000 nM, the TGI [40] was over 100000 nM and the TGI [56] was over 100000 nM. The TGI [41] was over 100000 nM, the TGI [42] was over 100000 nM and the TGI [43] was over 100000 nM. The TGI [44] was over 100000 nM.

In the case of `COC(=O)C(=O)C(C(=O)C(=O)Nc1cc(C)ccc1C)c1nc2ccc(C(=O)c3ccccc3)cc2[nH]c1=O` (centres undefined), the TGI [45] is reported as over 100000 nM, the TGI [46] is reported as over 100000 nM and the TGI [47] is reported as over 100000 nM. For the same molecule, the TGI [57] was over 100000 nM, the TGI [2] was over 100000 nM and the TGI [48] was over 100000 nM. For the same molecule, the TGI [3] was over 100000 nM, the TGI [50] was over 100000 nM and the TGI [4] was over 100000 nM. The TGI [5] was over 100000 nM, the TGI [51] was over 100000 nM and the TGI [58] was over 100000 nM. It also gave a TGI [7] of over 100000 nM, a TGI [9] of 91800 nM and a TGI [10] of over 100000 nM. For the same molecule, the TGI [11] was over 100000 nM, the TGI [12] was over 100000 nM and the TGI [13] was over 100000 nM. The TGI [15] was over 100000 nM, the TGI [16] was over 100000 nM and the TGI [17] was over 100000 nM. For the same molecule, the TGI [18] was over 100000 nM, the TGI [19] was over 100000 nM and the TGI [20] was over 100000 nM. For the same molecule, the TGI [21] was over 100000 nM, the TGI [22] was over 100000 nM and the TGI [23] was over 100000 nM. The TGI [24] was over 100000 nM, the TGI [25] was over 100000 nM and the TGI [26] was over 100000 nM. For the same molecule, the TGI [27] was over 100000 nM, the TGI [28] was over 100000 nM and the TGI [59] was over 100000 nM. The TGI [29] was over 100000 nM, the TGI [30] was over 100000 nM and the TGI [31] was over 100000 nM. The TGI [33] was over 100000 nM, the TGI [35] was over 100000 nM and the TGI [36] was over 100000 nM. The TGI [55] was over 100000 nM, the TGI [38] was over 100000 nM and the TGI [39] was over 100000 nM. For the same molecule, the TGI [40] was over 100000 nM, the TGI [56] was over 100000 nM and the TGI [41] was over 100000 nM. The TGI [42] was over 100000 nM and the TGI [43] was over 100000 nM.

— PubChem BioAssay (NCI)
